The numbers were not newly measured in patent US20070297991A1, “NEURAL CONDUIT AGENT DIS[…] SMOKING CESSATION AND OTHER APPLICATIONS” (MINU, L.L.C., priority 2006, published 2007), which cites them from elsewhere.

The conditions of this data set: in vivo.

As to `CN1CCCC1c1cccnc1` (stereo not shown) [nicotine], the plasma half-life entry is reported as “approximately two”.
